Source: the supplement of paper PMC11451515

Tests used:
Conditions in all cases: 48 h
NOMO1 [1] = assay: cell viability relative to DMSO control; higher = less cytotoxic
Outline: (§1)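 NOMO1 or SEM cells were plated at 500 cells/well and P12-Ichikawa cells at 1000 cells/well in 1536-well plates (5 μl), after each leukemia line had been adapted for at least four passages in each medium. Pin dosing delivered library compounds in DMSO at 11 threefold concentrations, 47 μM to 0.79 nM. CellTiter-Glo One luminescence was read after 48 h at 37°C. Viability is reported as a per-plate percentage of DMSO wells, with cell-free wells as background.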

P12-Ichikawa [2] = assay: as above
Outline: as §1

SEM cells [3] = assay: as above
Outline: as §1

NOMO1 [4] = assay: AUC of viability dose-response curve (% viability x log10 dose units); higher = less sensitive
Outline: (§2)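 Leukemia cells adapted to each medium were seeded in 1536-well plates (500 or 1000 cells/well) and given library compounds in DMSO for 48 h at 37°C. The 11 threefold doses spanned 47 μM to 0.79 nM, and CellTiter-Glo One luminescence was normalised per plate to DMSO and cell-free wells before four-parameter log-logistic fitting on log10 dose. Area under the curve was integrated with the trapezoidal rule, scaling curves above full viability and removing curves that failed quality control.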

P12-Ichikawa [5] = assay: as above
Outline: as §2

SEM cells [6] = assay: as above
Outline: as §2

CC/1=C(\O)C(=O)\C=C2/C1=C/C=C3\[C@@]2(C)CC[C@@]4(C)[C@@H]5C[C@@](C)(CC[C@]5(C)CC[C@]34C)C(O)=O
cell viability [%]
Conditions	NOMO1 [1]	P12-Ichikawa [2]	SEM cells [3]
HPLM + 10% dialyzed FBS, 0.000781 µM	104	105	109
HPLM + 10% dialyzed FBS, 0.00234 µM	119	96.7	102
HPLM + 10% dialyzed FBS, 0.00702 µM	97.5	103	102
HPLM + 10% dialyzed FBS, 0.0211 µM	99.6	103	119
HPLM + 10% dialyzed FBS, 0.0632 µM	108	114	113
HPLM + 10% dialyzed FBS, 0.19 µM	115	109	109
HPLM + 10% dialyzed FBS, 0.569 µM	113	104	118
HPLM + 10% dialyzed FBS, 1.71 µM	90	98.5	97.6
HPLM + 10% dialyzed FBS, 5.12 µM	23.4	56.4	10.9
HPLM + 10% dialyzed FBS, 15.4 µM	8.21	5.75	8.14
HPLM + 10% dialyzed FBS, 46.1 µM	8.32	5.87	5.78
RPMI 5 mM glucose + 10% FBS, 0.000781 µM	92.5	97.4	126
RPMI 5 mM glucose + 10% FBS, 0.00234 µM	103	97.3	97.9
RPMI 5 mM glucose + 10% FBS, 0.00702 µM	102	104	102
RPMI 5 mM glucose + 10% FBS, 0.0211 µM	105	96.9	117
RPMI 5 mM glucose + 10% FBS, 0.0632 µM	95	102	118
RPMI 5 mM glucose + 10% FBS, 0.19 µM	90.6	97.2	111
RPMI 5 mM glucose + 10% FBS, 0.569 µM	85.6	106	110
RPMI 5 mM glucose + 10% FBS, 1.71 µM	89.7	75.9	85.7
RPMI 5 mM glucose + 10% FBS, 5.12 µM	26.2	22.5	8.55
RPMI 5 mM glucose + 10% FBS, 15.4 µM	11	5.4	7.7
RPMI 5 mM glucose + 10% FBS, 46.1 µM	6.03	4.66	6.91
RPMI 5 mM glucose + 10% dialyzed FBS, 0.000781 µM	108	96.1	97.7
RPMI 5 mM glucose + 10% dialyzed FBS, 0.00234 µM	104	94.9	91.4
RPMI 5 mM glucose + 10% dialyzed FBS, 0.00702 µM	112	98.8	103
RPMI 5 mM glucose + 10% dialyzed FBS, 0.0211 µM	99.8	101	79.8
RPMI 5 mM glucose + 10% dialyzed FBS, 0.0632 µM	109	95.6	112
RPMI 5 mM glucose + 10% dialyzed FBS, 0.19 µM	97.6	94.8	89
RPMI 5 mM glucose + 10% dialyzed FBS, 0.569 µM	110	97.9	108
RPMI 5 mM glucose + 10% dialyzed FBS, 1.71 µM	82.6	71.1	61.1
RPMI 5 mM glucose + 10% dialyzed FBS, 5.12 µM	20.6	16.6	8.59
RPMI 5 mM glucose + 10% dialyzed FBS, 15.4 µM	14.1	5.81	9.09
RPMI 5 mM glucose + 10% dialyzed FBS, 46.1 µM	5.2	4.82	6.92

AUC of viability dose-response curve
Conditions	NOMO1 [4]	P12-Ichikawa [5]	SEM cells [6]
HPLM + 10% dialyzed FBS	366	386	362
RPMI 5 mM glucose + 10% FBS	360	360	355
RPMI 5 mM glucose + 10% dialyzed FBS	363	346	341

COc1ccc2cc1Oc1ccc(cc1)C[C@H]1c3cc(c(OC)cc3CCN1C)Oc1c(OC)c(OC)cc3c1[C@H](C2)N(C)CC3
cell viability [%]
Conditions	NOMO1 [1]	P12-Ichikawa [2]	SEM cells [3]
HPLM + 10% dialyzed FBS, 0.000781 µM	–	113	123
HPLM + 10% dialyzed FBS, 0.00234 µM	–	122	120
HPLM + 10% dialyzed FBS, 0.00702 µM	–	118	135
HPLM + 10% dialyzed FBS, 0.0211 µM	–	118	107
HPLM + 10% dialyzed FBS, 0.0632 µM	–	110	111
HPLM + 10% dialyzed FBS, 0.19 µM	–	114	123
HPLM + 10% dialyzed FBS, 0.569 µM	–	113	108
HPLM + 10% dialyzed FBS, 1.71 µM	–	101	82.6
HPLM + 10% dialyzed FBS, 5.12 µM	–	96.8	130
HPLM + 10% dialyzed FBS, 15.4 µM	–	98.3	102
HPLM + 10% dialyzed FBS, 46.1 µM	–	63.2	86.8
RPMI 5 mM glucose + 10% FBS, 0.000781 µM	109	123	124
RPMI 5 mM glucose + 10% FBS, 0.00234 µM	110	118	122
RPMI 5 mM glucose + 10% FBS, 0.00702 µM	132	115	115
RPMI 5 mM glucose + 10% FBS, 0.0211 µM	111	117	144
RPMI 5 mM glucose + 10% FBS, 0.0632 µM	111	113	127
RPMI 5 mM glucose + 10% FBS, 0.19 µM	116	111	126
RPMI 5 mM glucose + 10% FBS, 0.569 µM	117	112	120
RPMI 5 mM glucose + 10% FBS, 1.71 µM	107	111	88.9
RPMI 5 mM glucose + 10% FBS, 5.12 µM	98.3	103	116
RPMI 5 mM glucose + 10% FBS, 15.4 µM	99.8	91.2	105
RPMI 5 mM glucose + 10% FBS, 46.1 µM	85.1	49.1	72.5
RPMI 5 mM glucose + 10% dialyzed FBS, 0.000781 µM	107	114	125
RPMI 5 mM glucose + 10% dialyzed FBS, 0.00234 µM	120	111	117
RPMI 5 mM glucose + 10% dialyzed FBS, 0.00702 µM	121	115	113
RPMI 5 mM glucose + 10% dialyzed FBS, 0.0211 µM	118	106	125
RPMI 5 mM glucose + 10% dialyzed FBS, 0.0632 µM	113	113	107
RPMI 5 mM glucose + 10% dialyzed FBS, 0.19 µM	119	103	135
RPMI 5 mM glucose + 10% dialyzed FBS, 0.569 µM	111	105	105
RPMI 5 mM glucose + 10% dialyzed FBS, 1.71 µM	108	103	95.6
RPMI 5 mM glucose + 10% dialyzed FBS, 5.12 µM	103	102	114
RPMI 5 mM glucose + 10% dialyzed FBS, 15.4 µM	98.7	95.6	89.5
RPMI 5 mM glucose + 10% dialyzed FBS, 46.1 µM	86.8	58.5	64

AUC of viability dose-response curve
Conditions	NOMO1 [4]	P12-Ichikawa [5]	SEM cells [6]
HPLM + 10% dialyzed FBS	430	442	423
RPMI 5 mM glucose + 10% FBS	451	447	432
RPMI 5 mM glucose + 10% dialyzed FBS	452	458	441

C1CCN2C[C@H]3C[C@H](\C=C/4CCCN[C@@H]34)[C@H]2C1
cell viability [%]
Conditions	NOMO1 [1]	P12-Ichikawa [2]	SEM cells [3]
HPLM + 10% dialyzed FBS, 0.000781 µM	96.5	105	91.7
HPLM + 10% dialyzed FBS, 0.00234 µM	113	108	108
HPLM + 10% dialyzed FBS, 0.00702 µM	113	99.3	105
HPLM + 10% dialyzed FBS, 0.0211 µM	133	103	107
HPLM + 10% dialyzed FBS, 0.0632 µM	96.1	104	115
HPLM + 10% dialyzed FBS, 0.19 µM	122	110	115
HPLM + 10% dialyzed FBS, 0.569 µM	137	110	113
HPLM + 10% dialyzed FBS, 1.71 µM	107	115	108
HPLM + 10% dialyzed FBS, 5.12 µM	115	111	101
HPLM + 10% dialyzed FBS, 15.4 µM	99.5	108	123
HPLM + 10% dialyzed FBS, 46.1 µM	92.8	11.1	112
RPMI 5 mM glucose + 10% FBS, 0.000781 µM	105	110	95.2
RPMI 5 mM glucose + 10% FBS, 0.00234 µM	105	115	105
RPMI 5 mM glucose + 10% FBS, 0.00702 µM	108	121	89.2
RPMI 5 mM glucose + 10% FBS, 0.0211 µM	104	127	118
RPMI 5 mM glucose + 10% FBS, 0.0632 µM	98.7	117	103
RPMI 5 mM glucose + 10% FBS, 0.19 µM	108	123	110
RPMI 5 mM glucose + 10% FBS, 0.569 µM	104	122	102
RPMI 5 mM glucose + 10% FBS, 1.71 µM	105	116	96
RPMI 5 mM glucose + 10% FBS, 5.12 µM	108	115	95.7
RPMI 5 mM glucose + 10% FBS, 15.4 µM	63.7	134	118
RPMI 5 mM glucose + 10% FBS, 46.1 µM	55	20.8	120
RPMI 5 mM glucose + 10% dialyzed FBS, 0.000781 µM	107	113	99.6
RPMI 5 mM glucose + 10% dialyzed FBS, 0.00234 µM	108	104	102
RPMI 5 mM glucose + 10% dialyzed FBS, 0.00702 µM	114	101	109
RPMI 5 mM glucose + 10% dialyzed FBS, 0.0211 µM	121	112	127
RPMI 5 mM glucose + 10% dialyzed FBS, 0.0632 µM	108	112	103
RPMI 5 mM glucose + 10% dialyzed FBS, 0.19 µM	108	109	117
RPMI 5 mM glucose + 10% dialyzed FBS, 0.569 µM	120	108	103
RPMI 5 mM glucose + 10% dialyzed FBS, 1.71 µM	111	97.6	104
RPMI 5 mM glucose + 10% dialyzed FBS, 5.12 µM	120	112	95.8
RPMI 5 mM glucose + 10% dialyzed FBS, 15.4 µM	78.6	108	122
RPMI 5 mM glucose + 10% dialyzed FBS, 46.1 µM	64.2	19.2	122

AUC of viability dose-response curve
Conditions	NOMO1 [4]	P12-Ichikawa [5]	SEM cells [6]
HPLM + 10% dialyzed FBS	462	456	465
RPMI 5 mM glucose + 10% FBS	447	457	449
RPMI 5 mM glucose + 10% dialyzed FBS	452	457	457
